Source: US20200399329A1, “ANTIMICROBIAL PEPTIDES” (priority 2015, published 2020)
Several values for one entry are separate records, joined by “and”; a condition that tells them apart may be missing. Equal values may be shown once. Where a SMILES comes first, the peptide text is derived from it.

How the values were obtained:
E. coli = E. coli growth monitored via OD600 nm with CecA or OMN6; format: cell-based
Experimental: An assay was conducted in order to compare the antimicrobial activity of the native peptide Cecropin A (CecA) vs. a peptide of the invention OMN6. E. coli bacteria were cultured with CecA or OMN6 in concentration of 12.5 μM for 17-20 hours. The growth of the bacteria was continuously monitored via spectrophotometry at 600 nm. As bacterial growth progresses, OD600 nm values rise, and where the growth is inhibited OD600 nm values remain constant. […] The bacteria completely overcame the inhibitory effect of CecA after 10 hours. The bacteria then continued to thrive and grow to density similar to that of the CTRL group.

[1] = system: human primary erythrocytes; test: Hemolysis, cell count and MCV of human primary erythrocytes; format: cell-based
Experimental: Since the peptides of the invention are intended inter-alia to operate in wounds or other damaged tissue, a direct contact with patients' blood may occur. Accordingly, an experiment was conducted in order to assess whether OMN6 has cytotoxic effects on human primary erythrocytes. These cells lack any defense mechanism to protect them against damage to the plasma membrane and therefor are a standard model for evaluating cytotoxic effects on eukaryotic cells. The parameter that was measured was the ability of OMN6 to cause hemolysis, red blood cells death, in human erythrocytes. The experiments were performed on human blood samples using ABX PENTRA DF120 machine routinely used by hospital personnel to conduct such tests.
The Mean Corpuscular Volume (MCV) of the erythrocytes is a well-accepted indication of the cells' health and membrane integrity. The experiment was conducted to assess whether OMN6, which forms pores in bacterial membranes, has the ability to damage human cells plasma-membrane. […] (Table 5).
Table 4 and Table 5: hemolysis and Mean Corpuscular Values (MCV) of human primary erythrocytes were evaluated after treatment with OMN6.

[2] = Preliminary IP safety in mice; format: in vivo
Experimental: IP administration of OMN6: OMN6 was administered IP to mice in order to evaluate and quantitate any toxic effects if present. OMN6 peptide was administered via intraperitoneal injection according to concentrations and groups detailed in Table 10.
Mice used in this experiment: Outbred Hsd: ICR (CD-1®)—weight 18-20 g. Saline solution (0.9% NaCl) supplemented with 4 mM C2H3NaO2 (sodium acetate) as sham treatment, or OMN6 dissolved in saline were administered as specified in […] A total volume of 100 μl was administered to each animal.
Mortality of mice in experiment group was monitored in comparison to a Sham (CTRL) group. Food and water consumption, post treatment, was monitored by individual weight measurements once every two days. At the end of the experiment, blood was taken from all animals, and a 200 μl volume of complete blood was separated and plasma was analyzed for erythrocyte hemolysis.
Experimental Map: • 1. Mice (six per group) were given a single-dose administration on day 1, according to group specification (Table 10). Food and water consumption (weight analysis) along with mortality of mice in all groups were monitored for 3 days post treatment. At the end of the four day trial, the animals were sacrificed. • 2. Free Hgb (hemoglobin) assay was performed on day 4, on all samples from all groups, for erythrocyte hemolysis analysis. • 3. Water/food availability, temperature and other conditions remained unchanged between the groups for the entire four day trial. • 4. The Erythrocyte hemolysis analysis was performed via hemoglobin assay kit (Sigma-Aldrich, 3 Plaut St. Rehovot, Israel).

[3] = system: Escherichia coli (ATCC BAA-198) ESBL; test: Efficacy in mouse model of subcutaneous infection with E. coli; format: in vivo, mice
Experimental: Animals: Healthy adult female mice weighing 16-20 g were used. CD-I outbred (Harlan Breeding Labs, Jerusalem, Israel) were used in all experiments. Animals were caged in groups of 5-10 and were maintained on chow (Ralston Purina) and water ad-libitum.
Bacteria: Escherichia coli (ATCC BAA-198) is an extended spectrum beta-lactamase (ESBL) TEM-26 multi drug resistant strain. Stock cultures were grown in Tryptic Soy Broth (TSB) (Becton, Dickinson and company BD. Maryland, USA) at 37°.
Colonies were counted after incubation for 24 hours on TSB-agar (BD), and results were expressed as colony forming units (CFU)/ml.
Inoculum: All broth cultures were adjusted to 1×10^8 CFU/animal for the challenge dose by adding TSB to a final volume of 50 μl. Bacteria were administered via subcutaneous (SC) injection with tuberculin syringes capped with 29-gauge needles. Recipient animals had the right flank shaved and depilated with hair remover cream (ORNA19, Israel). To inject the inoculum, the needle was inserted SC 1 cm lateral to the thoracic spine and just anterior to the right hind extremity. The needle was tracked anteriorly and SC for 1 cm; then 50 μl of inoculum was injected.
OMN6 peptide at 8 mg/kg in a total volume of 80 μl was injected SC after one hour to the same area. All animals appeared well and fully active within 2-4 hours after this procedure. All animals were monitored for food and water consumption, mortality and any other adverse effects for the entire 5-day duration of the experiment.
Evaluation of Bacterial Burden: A 2 cm^2 area of skin was incised and the inner side, where the abscess was located, was scraped with a sterile scalpel. Scraped tissue was filtered through a 40 μm cell-strainer. Filtered mass was collected, centrifuged at 500 RPM for 2 minutes and a sample from the supernatant was plated on TBS-agar plates for 24 hours at 37°. Colonies were then counted and results are presented as CFU/abscess (see FIG. 10A).
Evaluation of Abscesses: Animals were assessed for the presence and size of abscesses on day 5. The animals were anesthetized (Ketamine 225 mg/kg/Xylazine 6 mg/kg BW IP), the right hind flank area was gently exposed by aseptic technique. Abscesses were recorded and then measured by calipers: the product of the longest diameter (D) and corresponding perpendicular diameter (d) was determined as “abscess size” (D×d) findings presented in mm^2 (see FIG. 10B).

[4] = IP single dose 16 mg/kg, four-day experiment
[5] = mice, SC 1×10^8 CFU E. coli ESBL, OMN6 8 mg/kg SC after one hour, day 5

CC[C@H](C)[C@H](NC(=O)CNC(=O)[C@H](CC(=O)O)NC(=O)[C@H](CCCNC(=N)N)NC(=O)[C@@H](NC(=O)[C@H](CC(N)=O)NC(=O)[C@H](CCC(N)=O)NC(=O)CNC(=O)[C@@H](NC(=O)[C@H](CCCCN)NC(=O)[C@H](CCC(=O)O)NC(=O)[C@@H](NC(=O)[C@H](CCCCN)NC(=O)[C@H](CCCCN)NC(=O)[C@H](Cc1ccccc1)NC(=O)[C@H](CC(C)C)NC(=O)[C@H](CCCCN)NC(=O)[C@H](Cc1c[nH]c2ccccc12)NC(=O)[C@H](CCCCN)NC(=O)[C@H](CS)NC(=O)[C@@H](N)CCSC)[C@@H](C)CC)C(C)C)[C@@H](C)CC)C(=O)N[C@H](C(=O)N[C@@H](CCCCN)C(=O)N[C@@H](C)C(=O)NCC(=O)N1CCC[C@H]1C(=O)N[C@@H](C)C(=O)N[C@H](C(=O)N[C@@H](C)C(=O)N[C@H](C(=O)N[C@H](C(=O)NCC(=O)N[C@@H](CCC(N)=O)C(=O)N[C@@H](C)C(=O)N[C@H](C(=O)N[C@@H](CCC(N)=O)C(=O)N[C@H](C(=O)N[C@@H](C)C(=O)N[C@@H](CCCCN)C(=O)N[C@@H](CS)C(N)=O)[C@@H](C)CC)[C@@H](C)O)C(C)C)C(C)C)C(C)C)[C@@H](C)CC [OMN6] (H-MCKWKLFKKIEKVGQNIRDGIIKAGPAVAVVGQATQIAKC-NH2; N-terminus and C-terminus assumed)
Inhibition of E. coli growth (OD600 nm) (E. coli; 12.5 μM, 17-20 hours): completely inhibited bacterial growth | Duration of growth inhibition (E. coli; 12.5 μM, E. coli): more than 17 hours | Colonies after plating (bactericidal nature) (E. coli; E. coli, experiment groups of Example 2 plated): no colonies present | Erythrocytes Mean Corpuscular Volume (MCV) ([1]; OMN6 10 μM, 30 min): 64 | Number of live erythrocytes ([1]; OMN6 10 μM, 30 min): 1.69 cells*10^6/ml | Erythrocytes Mean Corpuscular Volume (MCV) ([1]; OMN6 10 μM, 60 min): 64 | Number of live erythrocytes ([1]; OMN6 10 μM, 60 min): 1.66 cells*10^6/ml | Erythrocytes Mean Corpuscular Volume (MCV) ([1]; OMN6 10 μM, 120 min): 63 | Number of live erythrocytes ([1]; OMN6 10 μM, 120 min): 1.68 cells*10^6/ml | Erythrocytes Mean Corpuscular Volume (MCV) ([1]; OMN6 10 μM, 180 min): 64 | Number of live erythrocytes ([1]; OMN6 10 μM, 180 min): 1.67 cells*10^6/ml | Erythrocytes Mean Corpuscular Volume (MCV) ([1]; OMN6 20 μM, 30 min): 64 | Number of live erythrocytes ([1]; OMN6 20 μM, 30 min): 1.65 cells*10^6/ml | Erythrocytes Mean Corpuscular Volume (MCV) ([1]; OMN6 20 μM, 60 min): 64 | Number of live erythrocytes ([1]; OMN6 20 μM, 60 min): 1.70 cells*10^6/ml | Erythrocytes Mean Corpuscular Volume (MCV) ([1]; OMN6 20 μM, 120 min): 63 | Number of live erythrocytes ([1]; OMN6 20 μM, 120 min): 1.71 cells*10^6/ml | Erythrocytes Mean Corpuscular Volume (MCV) ([1]; OMN6 20 μM, 180 min): 64 | Number of live erythrocytes ([1]; OMN6 20 μM, 180 min): 1.70 cells*10^6/ml | Erythrocytes Mean Corpuscular Volume (MCV) ([1]; OMN6 40 μM, 30 min): 64 | Number of live erythrocytes ([1]; OMN6 40 μM, 30 min): 1.60 cells*10^6/ml | Erythrocytes Mean Corpuscular Volume (MCV) ([1]; OMN6 40 μM, 60 min): 64 | Number of live erythrocytes ([1]; OMN6 40 μM, 60 min): 1.80 cells*10^6/ml | Erythrocytes Mean Corpuscular Volume (MCV) ([1]; OMN6 40 μM, 120 min): 63 | Number of live erythrocytes ([1]; OMN6 40 μM, 120 min): 1.77 cells*10^6/ml | Erythrocytes Mean Corpuscular Volume (MCV) ([1]; OMN6 40 μM, 180 min): 64 | Number of live erythrocytes ([1]; OMN6 40 μM, 180 min): 1.76 cells*10^6/ml | Hemolysis of human erythrocytes ([1]; human blood samples): hemolysis of cells did not occur | Histological analysis ([2]; IP single dose 16 mg/kg (data not shown)): No evidence of pathological changes or aberrations | Hemolysis of erythrocytes (Free Hgb assay) ([2]; IP single dose 16 mg/kg, day 4): No evidence of hemolysis | Clinical signs (diarrhea, bloody diarrhea, stand-on-end hair, apathy or restlessness) [2, 4]: not observed | Mortality [2, 4]: not observed | Toxic or otherwise adverse effects [2, 4]: does not exert any toxic or otherwise adverse effects | Weight-loss [2, 4]: not observed | Decrease in abscess size ([3]; OMN6 8 mg/kg SC versus sham-saline): 80% | Decrease in bacteria burden ([3]; OMN6 8 mg/kg SC versus sham-saline, 8 mg/kg): 93.3% and 94% | Average size of the abscesses (D×d) [3, 5]: 7.25 mm^2 | Bacteria burden [3, 5]: 20 CFU/mouse
